# From patent US9328083B2, “2-aminated methylene or 2-esterified methylene tanshinone derivatives, and preparation method and application thereof” (HANGZHOU BENSHENG PHARMACEUTICAL CO., LTD., priority 2011, dated 2016)
# Assays:
# [1] = system: RPMI8226 (multiple myeloma); assay: MTT growth inhibition of multiple myeloma cells, 72 h; type: cell-based, human; settings: Homo sapiens, RPMI 8226, 72 h; for IC50: read-out: IC50; for IC90: read-out: IC90
# Description: Myeloma cell lines: RPMI8226 (multiple myeloma), purchased from Fuxiang Bio-tech Co. Ltd., Shanghai, China.
# (§1) The standard sample of tanshinone I (TA) and the 2-aminated methylene or 2-esterified methylene tanshinone I derivatives of the present invention are sufficiently dissolved with dimethylsulfoxide to produce a stock solution of 10 mg/mL, which is refrigerated at 4° C. and stored in dark, and is diluted with a cell culture medium to the desired concentration prior to experimentation.
# Obtaining 6000 well-growing myeloma cells as above and inoculating them into wells of a 96-well cell culture plate. The culture medium is the 1640 cell culture medium containing 10% fetal bovine serum. After adding the 2-aminated methylene or 2-esterified methylene tanshinone I derivatives of different concentrations and mixing uniformly, placing the plate in a carbon dioxide cell incubator (5% CO2) at 37° C. and incubated for 72 hours. Then the viable cell concentration is determined by MTT method.
# [2] = system: SK-OV-3 (ovarian cancer cell); assay: MTT growth inhibition of human solid tumor cells, 72 h; type: cell-based; settings: Homo sapiens, SK-OV-3, 72 h; for IC50: read-out: IC50; for IC90: read-out: IC90
# Description: (§2) Hep-2 (laryngeal carcinoma), A549 (human lung cancer), CaES-17 (esophageal cancer cell), PC-3 (prostate cancer), CNE (nasopharyngeal carcinoma cell), and SK-OV-3 (ovarian cancer cell), all of which are purchased from China Center For Type Culture Collection; RKO (human colon adenocarcinoma cell), MGC 803 (human gastric cancer cell), MG63 (osteosarcoma) and U87 MG (malignant glioma cell), all of which are purchased from Fuxiang Bio-tech Co. Ltd., Shanghai, China; PANC-1 (pancreatic cancer), Hep G2 (human liver cancer cell), Becap37 (human breast cancer cell) and Hela (human cervical cancer cell), all of which are donated by Cancer Research Institute of Zhejiang University, China.
# as §1
# (§3) Obtaining 4000 well-growing human solid tumor cells and inoculating them into wells of a 96-well cell culture plate. The culture medium is DMEM High Glucose cell culture medium containing 10% fetal bovine serum. The plate is placed in a carbon dioxide cell incubator (5% CO2) at 37° C. and incubated for 24 hours. After adding the 2-aminated methylene or 2-esterified methylene tanshinone I derivatives of different concentrations and mixing uniformly, the plate is placed in a carbon dioxide cell incubator (5% CO2) at 37° C. and incubated for 72 hours. Then the viable cell concentration is determined by the MTT method.
# [3] = system: Hep-2 (laryngeal carcinoma); assay: as above; type: cell-based; settings: Homo sapiens, HEp-2, 72 h; for IC50: read-out: IC50; for IC90: read-out: IC90
# Description: as §2, §1, §3
# [4] = system: CaES-17 (esophageal cancer cell); assay: as above; type: cell-based; settings: Homo sapiens, CaEs17, CaEs-17, 72 h; for IC50: read-out: IC50; for IC90: read-out: IC90
# Description: as §2, §1, §3
# [5] = system: Hep G2 (human liver cancer cell); assay: as above; type: cell-based; settings: Homo sapiens, HepG2, Hep G2, 72 h; for IC50: read-out: IC50; for IC90: read-out: IC90
# Description: as §2, §1, §3
# [6] = system: RKO (human colon adenocarcinoma cell); assay: as above; type: cell-based; settings: Homo sapiens; for IC50: read-out: IC50; for IC90: read-out: IC90
# Description: as §2, §1, §3
# PC-3 (prostate cancer) = assay: as above; type: cell-based; settings: Homo sapiens, PC-3, 72 h; for IC50: read-out: IC50; for IC90: read-out: IC90
# Description: as §2, §1, §3
# MG63 (osteosarcoma) = assay: as above; type: cell-based; settings: Homo sapiens, MG-63, 72 h; for IC50: read-out: IC50; for IC90: read-out: IC90
# Description: as §2, §1, §3
# [7] = system: U87 MG (malignant glioma cell); assay: as above; type: cell-based; settings: Homo sapiens, U-87 MG, U87-MG, 72 h; for IC50: read-out: IC50; for IC90: read-out: IC90
# Description: as §2, §1, §3
# [8] = system: CNE (nasopharyngeal carcinoma cell); assay: as above; type: cell-based; settings: Homo sapiens; for IC50: read-out: IC50; for IC90: read-out: IC90
# Description: as §2, §1, §3
# A549 (human lung cancer) = assay: as above; type: cell-based; settings: Homo sapiens, A549, 72 h; for IC50: read-out: IC50; for IC90: read-out: IC90
# Description: as §2, §1, §3
# [9] = system: Becap37 (human breast cancer cell); assay: as above; type: cell-based; settings: Homo sapiens, Becap-37, 72 h; for IC50: read-out: IC50; for IC90: read-out: IC90
# Description: as §2, §1, §3
# [10] = system: PANC-1 (pancreatic cancer); assay: as above; type: cell-based; settings: Homo sapiens, PANC-1, 72 h; for IC50: read-out: IC50; for IC90: read-out: IC90
# Description: as §2, §1, §3
# [11] = system: MGC 803 (human gastric cancer cell); assay: as above; type: cell-based; settings: Homo sapiens, MGC-803, 72 h; for IC50: read-out: IC50; for IC90: read-out: IC90
# Description: as §2, §1, §3
# [12] = system: Hela (human cervical cancer cell); assay: as above; type: cell-based; settings: Homo sapiens, HeLa, 72 h; for IC50: read-out: IC50; for IC90: read-out: IC90
# Description: as §2, §1, §3
# [13] = system: H9 (acute lymphoblastic leukemia, ALL); assay: MTT growth inhibition of leukemia cells, 72 h; type: cell-based, human; settings: Homo sapiens, H9, 72 h; for IC50: read-out: IC50; for IC90: read-out: IC90
# Description: (§4) Leukemia cell lines: leukemia cell lines: K562/adr (drug-resistant, chronic myeloid leukemia, CML), NB4 (acute promyelocytic leukemia, AML), Kasumi-1 (acute myeloid leukemia M2 type, AML-M2), and Jurkat (acute lymphoblastic leukemia, ALL), all of which are donated by Cancer Research Institute of Zhejiang University, China; and H9 (acute lymphoblastic leukemia, ALL), which is purchased from China Center for Type Culture Collection (CCTCC).
# as §1
# (§5) Obtaining 6000 well-growing leukemia cells and inoculating them into wells of a 96-well cell culture plate. The culture medium is the RPMI-1640 cell culture medium containing 10% fetal bovine serum. After adding on the second day the 2-aminated methylene or 2-esterified methylene tanshinone I derivatives of different concentrations and mixing uniformly, placing the plate in a carbon dioxide cell incubator (5% CO2) at 37° C. and incubated for 72 hours. Then the viable cell concentration is determined by MTT method.
# [14] = system: Jurkat (acute lymphoblastic leukemia, ALL); assay: MTT growth inhibition of leukemia cells, 72 h; type: cell-based, human; settings: Homo sapiens, 72 h; for IC50: read-out: IC50; for IC90: read-out: IC90
# Description: as §4, §1, §5
# [15] = system: Kasumi-1 (acute myeloid leukemia M2 type, AML-M2); assay: MTT growth inhibition of leukemia cells, 72 h; type: cell-based, human; settings: Homo sapiens, Kasumi-1, 72 h; for IC50: read-out: IC50; for IC90: read-out: IC90
# Description: as §4, §1, §5
# [16] = system: K562/adr (drug-resistant, chronic myeloid leukemia, CML); assay: MTT growth inhibition of leukemia cells, 72 h; type: cell-based, human; settings: Homo sapiens, K562/Adr; for IC50: read-out: IC50; for IC90: read-out: IC90
# Description: as §4, §1, §5
# [17] = system: NB4 (acute promyelocytic leukemia, AML); assay: MTT growth inhibition of leukemia cells, 72 h; type: cell-based, human; settings: Homo sapiens, NB4, 72 h; for IC50: read-out: IC50; for IC90: read-out: IC90
# Description: as §4, §1, §5
SMILES,IC50 [1] [µg/mL],IC90 [1] [µg/mL],IC50 [2] [µg/mL],IC90 [2] [µg/mL],IC50 [3] [µg/mL],IC90 [3] [µg/mL],IC50 [4] [µg/mL],IC90 [4] [µg/mL],IC50 [5] [µg/mL],IC90 [5] [µg/mL],IC50 [6] [µg/mL],IC90 [6] [µg/mL],IC50 (PC-3 (prostate cancer)) [µg/mL],IC90 (PC-3 (prostate cancer)) [µg/mL],IC50 (MG63 (osteosarcoma)) [µg/mL],IC90 (MG63 (osteosarcoma)) [µg/mL],IC50 [7] [µg/mL],IC90 [7] [µg/mL],IC50 [8] [µg/mL],IC90 [8] [µg/mL],further results
Cc1c(CN(C)CCOC(=O)C(C)(C)C)oc2c1C(=O)C(=O)c1c-2ccc2c(C)cccc12 [BS-TA-62],2.64,7.68,> 16,> 16,6.81,> 16,6.33,11.8,5.41,22.6,0.47,> 16,3.21,8.76,4.88,> 16,3.2,7.65,1.8,18,IC50 (A549 (human lung cancer)): 3.3 µg/mL; IC90 (A549 (human lung cancer)): 21.4 µg/mL; IC50 [9]: 5.04 µg/mL; IC90 [9]: 11.6 µg/mL; IC50 [10]: 1.42 µg/mL; IC90 [10]: 16 µg/mL; IC50 [11]: 6.3 µg/mL; IC90 [11]: 14.1 µg/mL; IC50 [12]: 9.26 µg/mL; IC90 [12]: > 16 µg/mL; IC50 [13]: 0.6 µg/mL; IC90 [13]: 1.8 µg/mL; IC50 [14]: 0.89 µg/mL; IC90 [14]: 3.47 µg/mL; IC50 [15]: 0.42 µg/mL; IC90 [15]: 0.97 µg/mL; IC50 [16]: 0.78 µg/mL; IC90 [16]: 3.48 µg/mL; IC50 [17]: 1.42 µg/mL; IC90 [17]: 3.85 µg/mL
Cc1c(CN(C)CCOC(=O)OC(C)C)oc2c1C(=O)C(=O)c1c-2ccc2c(C)cccc12 [BS-TA-63],7.76,16,> 16,> 16,3.39,22.4,> 16,> 16,15.7,> 16,1.86,17.6,5.83,18.9,14.1,> 16,15.8,> 16,> 16,> 16,IC50 (A549 (human lung cancer)): 6.5 µg/mL; IC90 (A549 (human lung cancer)): 23.4 µg/mL; IC50 [9]: 16 µg/mL; IC90 [9]: > 16 µg/mL; IC50 [10]: 4.92 µg/mL; IC90 [10]: 20.9 µg/mL; IC50 [11]: 14.9 µg/mL; IC90 [11]: > 16 µg/mL; IC50 [12]: 8.77 µg/mL; IC90 [12]: > 16 µg/mL; IC50 [13]: 3.75 µg/mL; IC90 [13]: 15.3 µg/mL; IC50 [14]: 3 µg/mL; IC90 [14]: 7.56 µg/mL; IC50 [15]: 1.48 µg/mL; IC90 [15]: 3.89 µg/mL; IC50 [16]: 1.26 µg/mL; IC90 [16]: 4.6 µg/mL; IC50 [17]: 3.73 µg/mL; IC90 [17]: 10.4 µg/mL
Cc1c(CN(C)CCOC(=O)C2CCNCC2)oc2c1C(=O)C(=O)c1c-2ccc2c(C)cccc12 [BS-TA-64],0.4,0.92,3.55,7.76,1.67,3.65,0.88,1.85,1.31,3.66,0.29,5.56,1.8,4.15,0.82,2.16,1.16,3.72,1.8,3.8,IC50 (A549 (human lung cancer)): 1.4 µg/mL; IC90 (A549 (human lung cancer)): 4.46 µg/mL; IC50 [9]: 0.77 µg/mL; IC90 [9]: 1.67 µg/mL; IC50 [10]: 0.71 µg/mL; IC90 [10]: 5.07 µg/mL; IC50 [11]: 0.85 µg/mL; IC90 [11]: 3.24 µg/mL; IC50 [12]: 2.16 µg/mL; IC90 [12]: 3.9 µg/mL; IC50 [13]: 0.59 µg/mL; IC90 [13]: 1.63 µg/mL; IC50 [14]: 0.54 µg/mL; IC90 [14]: 1.92 µg/mL; IC50 [15]: 0.33 µg/mL; IC90 [15]: 0.7 µg/mL; IC50 [16]: 0.84 µg/mL; IC90 [16]: 2.82 µg/mL; IC50 [17]: 0.25 µg/mL; IC90 [17]: 0.87 µg/mL
